Results taken from ChEMBL document CHEMBL1144536, “Ring substituent effects on biological activity of vinyl sulfones as inhibitors of HIV-1” (Bioorg Med Chem, 2007).

Assays:
[1] = target: T1, Human immunodeficiency virus type 1 integrase (Human immunodeficiency virus 1, UniProt Q7ZJM1); assay: Inhibition of HIV1 integrase-mediated 3'-processing activity
[2] = test system: Human immunodeficiency virus 1; assay: Antiviral activity against HIV1 by focal infectivity assay; type: functional, organism-based
[3] = target: T1, Human immunodeficiency virus type 1 integrase; assay: Inhibition of HIV1 integrase-mediated integration activity
[4] = Cytotoxicity against HeLa H1-JC.37 cells by MTS assay; type: cell-based; conditions: Homo sapiens
[5] = Selectivity ratio of EC50 for HIV1 to IC50 for HeLa H1-JC.37 cells; type: functional

T1 sequence (Q7ZJM1 whole entry): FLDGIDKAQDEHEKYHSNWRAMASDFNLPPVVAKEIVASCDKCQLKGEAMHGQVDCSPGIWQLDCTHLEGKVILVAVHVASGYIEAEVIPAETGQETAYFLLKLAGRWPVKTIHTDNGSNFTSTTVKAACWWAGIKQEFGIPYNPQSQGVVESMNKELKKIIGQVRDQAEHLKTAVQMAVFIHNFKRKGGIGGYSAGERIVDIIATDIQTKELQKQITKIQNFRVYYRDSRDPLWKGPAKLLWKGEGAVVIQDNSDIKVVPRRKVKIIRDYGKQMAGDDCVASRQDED

Compound	IC50 [1] [µM]	EC50 [2] [µM]	IC50 [3] [µM]	IC50 [4] [µM]	Ratio IC50/EC50 [5]
COc1cc(OC)c(OC)cc1/C=C/S(=O)(=O)CS(=O)(=O)/C=C/c1cc(OC)c(OC)cc1OC	> 1000	> 10	> 1000		
O=S(=O)(/C=C/c1cc(OCc2ccccc2)c(OCc2ccccc2)c(OCc2ccccc2)c1)CS(=O)(=O)/C=C/c1cc(OCc2ccccc2)c(OCc2ccccc2)c(OCc2ccccc2)c1	> 100	> 10	> 100		
O=S(=O)(/C=C/c1ccccc1)CS(=O)(=O)/C=C/c1ccccc1	> 100	1.2	> 100	12	9.9
COc1cc(/C=C/S(=O)(=O)CS(=O)(=O)/C=C/c2cc(Br)c(OC)c(OC)c2)cc(Br)c1OC	> 100	> 10	> 100		
O=S(=O)(/C=C/c1ccc(OCc2ccccc2)c(OCc2ccccc2)c1)CS(=O)(=O)/C=C/c1ccc(OCc2ccccc2)c(OCc2ccccc2)c1	> 100	> 10	> 100		
O=S(=O)(/C=C/c1cc(Cl)ccc1Cl)CS(=O)(=O)/C=C/c1cc(Cl)ccc1Cl	> 100	3.4	> 100	2.6	0.77
O=S(=O)(/C=C/c1ccccc1OCc1ccccc1)CS(=O)(=O)/C=C/c1ccccc1OCc1ccccc1	> 100	> 10	> 100		
O=S(=O)(/C=C/c1cccc(Br)n1)CS(=O)(=O)/C=C/c1cccc(Br)n1	> 1000	> 10	900		
O=S(=O)(/C=C/c1cc(F)c(F)c(F)c1)CS(=O)(=O)/C=C/c1cc(F)c(F)c(F)c1	> 100	2	> 100	7.8	3.9

Continued, in another order:

IC50 [1] [µM]	EC50 [2] [µM]	IC50 [3] [µM]	Compound	IC50 [4] [µM]	Ratio IC50/EC50 [5]
> 100	> 10	95	O=S(=O)(/C=C/c1ccc2[nH]ccc2c1)CS(=O)(=O)/C=C/c1ccc2[nH]ccc2c1		
33	> 10	33	O=C(O)c1ccc(/C=C/S(=O)(=O)CS(=O)(=O)/C=C/c2ccc(C(=O)O)cc2)cc1		
> 100	> 10	> 100	O=S(=O)(CCc1ccccc1)CS(=O)(=O)CCc1ccccc1	> 150	
900	> 10	333	O=S(=O)(CCc1cc(F)c(F)c(F)c1)CS(=O)(=O)CCc1cc(F)c(F)c(F)c1	110	
> 100	> 10	> 100	O=S(=O)(/C=C/c1ccc2c(c1)OCCO2)CS(=O)(=O)/C=C/c1ccc2c(c1)OCCO2		
> 100	> 10	> 100	COc1ccc(Br)cc1/C=C/S(=O)(=O)CS(=O)(=O)/C=C/c1cc(Br)ccc1OC		
850	> 10	500	COc1cc(Br)c(/C=C/S(=O)(=O)CS(=O)(=O)/C=C/c2cc(OC)c(OC)cc2Br)cc1OC		
500	> 10	500	COc1cc(/C=C/S(=O)(=O)CS(=O)(=O)/C=C/c2cc(OC)c(OC)cc2[N+](=O)[O-])c([N+](=O)[O-])cc1OC		
40	6.2	17	O=S(=O)(CCc1ccc(O)c(O)c1)CS(=O)(=O)CCc1ccc(O)c(O)c1	170	27
